# The source made the active and inactive calls.
# Tests used:
# [1] = target: T1, G-protein coupled receptor 35 (Homo sapiens, UniProt Q9HC97); experiment: SAR analysis of Agonists of the GPR35 Receptor using an Image-Based Assay - Set 4. [Related pubchem assays (depositor defined):AID2013, AID2026]; format: functional
# Cannabinoid receptor 1 [2] = target: T2, Cannabinoid receptor 1 (Homo sapiens, UniProt P21554); experiment: SAR analysis of agonists of the Cannabinoid Receptor 1 using an Image-Based Assay - Set 4. [Related pubchem assays (depositor defined):AID2013, AID2026]; format: functional
# [3] = target: T1, G-protein coupled receptor 35; experiment: SAR analysis of Antagonists of the GPR35 Receptor using an Image-Based Assay - Set 6. [Related pubchem assays (depositor defined):AID2013, AID2026]; format: functional
# Cannabinoid receptor 1 [4] = target: T2, Cannabinoid receptor 1; experiment: SAR analysis of antagonists of the Cannabinoid Receptor 1 using an Image-Based Assay - Set 4. [Related pubchem assays (depositor defined):AID2013, AID2026]; format: functional
# [5] = target: G-protein coupled receptor 55 (Homo sapiens, UniProt Q9Y2T6); experiment: SAR Analysis of Selective Antagonists of GPR55 using an Image-Based Assay - Set 4. [Related pubchem assays (depositor defined):AID2013, AID2026]; format: functional;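 also: antagonism of response to 5 µM lysophosphatidylinositol agonist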
# Cannabinoid receptor 2 [6] = target: T3, Cannabinoid receptor 2 (Homo sapiens, UniProt P34972); experiment: SAR analysis of antagonists of the Cannabinoid Receptor 2 using an Image-Based Assay - Set 3. [Related pubchem assays (depositor defined):AID2013, AID2026]; format: functional
# Cannabinoid receptor 2 [7] = target: T3, Cannabinoid receptor 2; experiment: SAR analysis of agonists of the Cannabinoid Receptor 2 using an Image-Based Assay - Set 3. [Related pubchem assays (depositor defined):AID2013, AID2026]; format: functional
# [8] = Luminescence Cell-Based Dose Response HTS to Identify Inhibitors of Luciferase Translation or Activity in H4-C Neuroglioblastoma Cells. [Related pubchem assays: 1813 (Primary HTS), 1827 (Project Summary)]; format: functional
# [9] = Luminescence Cell-Based Dose Response HTS to Identify Activators of Luciferase Translation or Activity in H4-C Neuroglioblastoma Cells. [Related pubchem assays: 1829 (Project Summary), 1814 (Primary HTS)]; format: functional
# [10] = luciferase reporter signal suppression in cells – H4 neuroglioma cells, luminescence, dose response (AID 1990); format: functional, cell-based
# [11] = luciferase reporter signal reduction – luminescence, H4-C neuroglioblastoma cells, dose response (AID 2458); format: functional, cell-based;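 also: H4 neuroglioblastoma cells stably carrying a luciferase reporter gene fusion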
# [12] = Luminescence Cell-Based Dose Retest to Confirm Activators of 5'UTR Stem-Loop Driven Alpha-Synuclein mRNA Translation in H4 Neuroglioblastoma Cells. [Related pubchem assays (depositor defined):AID1813, AID1829]; format: functional
# [13] = Luminescence Cell-Based Dose Response HTS to Identify Activators of 5'UTR Stem-Loop Driven Prion Protein mRNA Translation in H4-C Neuroglioblastoma Cells. [Related pubchem assays: 1829 (Project Summary), 1814 (Primary HTS)]; format: functional
# [14] = Luminescence Cell-Based Dose HTS Response to Identify Inhibitors of 5'UTR Stem-Loop Driven Prion Protein mRNA Translation in H4-C Neuroglioblastoma Cells. [Related pubchem assays (depositor defined):AID1814, AID1827]; format: functional
# BJ [15] = experiment: BJ-TERT fibroblast viability loss – cell-based, RAS-independent, luminescence, dose response (AID 1933); format: functional; conditions: Homo sapiens
# cells [16] = format: functional, cell-based
# [17] = Luminescence Cell-Based Dose Response HTS to Identify Inhibitors of 5'UTR Stem-Loop Driven Prion Protein mRNA Translation in H4 Neuroglioblastoma Cells. [Related pubchem assays: 1827 (Project Summary), 1813 (Primary HTS)]; format: functional
# [18] = alpha-synuclein stem-loop luciferase translation blockers – H4 neuroglioma cells, luminescence, confirmation (AID 1988); format: functional, cell-based
# BJ [19] = experiment: cells; format: functional, cell-based; conditions: Homo sapiens
# [20] = Luminescence Cell-Based Dose Confirmation HTS to Identify Inhibitors of 5'UTR Stem-Loop Driven Alpha-Synuclein mRNA Translation in H4 Neuroglioblastoma Cells. [Related pubchem assays: 1827 (Project Summary), 1813 (Primary HTS)]; format: functional
# BJ [21] = experiment: BJ-TERT-LT-ST fibroblast viability loss – cell-based, RAS-independent, luminescence, dose response (AID 1935); format: functional; conditions: Homo sapiens;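 also: BJ fibroblasts immortalized with TERT plus LT and ST oncogenes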
# [22] = DRD fibroblast viability loss – cell-based, non-viral oncogenic, luminescence, dose response (AID 1934); format: functional; conditions: Homo sapiens
# [23] = alpha-synuclein stem-loop translation blockers – luminescence, H4 neuroglioblastoma cells, dose confirmation, confirmation (AID 2454); format: functional, cell-based;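 also: H4 neuroglioblastoma cells carrying an alpha-synuclein 5'UTR luciferase reporter; potency for inhibition of the luciferase signal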
# BJ [24] = experiment: growth inhibition of engineered Ras-driven BJ cells – cell-based, alamar blue fluorescence, cherrypicked samples, dose response (AID 2631); format: functional; conditions: Homo sapiens;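 also: confirmatory dose-response assay in RAS-dependent BJ fibroblasts engineered with TERT, LT and ST, with cytotoxicity read by fluorescence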
# [25] = toxicity toward HEK293 cells – cell-based, dry powder samples, cytotoxicity control, dose response (AID 720567); format: functional
# [26] = THP-1 cell cytotoxicity, dose response, cytotoxicity control for non-replicating M. tuberculosis project (AID 489025); format: functional
# Protein RecA [27] = target: T4, Protein RecA (Mycobacterium tuberculosis, UniProt P9WHJ3); experiment: GFP-RecA MOA-DTT Measured in Biochemical System Using Plate Reader - 2047-05_Inhibitor_Dose_DryPowder_Activity. [Related pubchem assays (depositor defined):AID2223]; set-up: species or system Mycobacterium tuberculosis H37Rv
# T4 sequence (P9WHJ3 whole entry): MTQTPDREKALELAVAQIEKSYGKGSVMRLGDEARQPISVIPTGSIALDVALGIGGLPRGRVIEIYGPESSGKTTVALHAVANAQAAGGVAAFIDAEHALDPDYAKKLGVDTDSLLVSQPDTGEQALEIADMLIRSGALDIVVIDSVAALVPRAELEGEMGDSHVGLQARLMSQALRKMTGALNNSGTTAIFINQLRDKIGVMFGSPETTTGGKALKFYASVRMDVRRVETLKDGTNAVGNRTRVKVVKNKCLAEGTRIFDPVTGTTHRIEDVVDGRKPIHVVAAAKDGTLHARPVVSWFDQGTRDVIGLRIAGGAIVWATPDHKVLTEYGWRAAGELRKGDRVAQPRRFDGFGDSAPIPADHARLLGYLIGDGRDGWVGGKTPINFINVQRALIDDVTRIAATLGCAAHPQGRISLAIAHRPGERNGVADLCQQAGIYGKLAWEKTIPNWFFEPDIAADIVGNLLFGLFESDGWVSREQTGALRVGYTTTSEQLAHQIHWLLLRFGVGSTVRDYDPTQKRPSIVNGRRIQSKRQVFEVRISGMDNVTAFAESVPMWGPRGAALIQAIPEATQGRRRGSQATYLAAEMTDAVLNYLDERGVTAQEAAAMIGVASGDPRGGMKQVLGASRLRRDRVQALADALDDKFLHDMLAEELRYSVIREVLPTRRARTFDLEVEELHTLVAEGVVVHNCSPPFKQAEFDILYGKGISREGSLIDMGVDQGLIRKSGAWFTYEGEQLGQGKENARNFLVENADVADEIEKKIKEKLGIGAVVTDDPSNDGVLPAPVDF
# [28] = Vero E6 cell cytotoxicity, dose response, cytotoxicity control for non-replicating M. tuberculosis project, secondary assay (AID 492998); format: functional, VeroE6; conditions: Vero C1008
# Nonstructural protein 1 = Nonstructural protein 1 (Influenza A virus, UniProt Q194T2); format: functional, Influenza A virus (A/California/07/2009(H1N1))
# [29] = Intein inhibitors as potential Tuberculosis drugs, a cytotoxicity screen. [Related pubchem assays (depositor defined):AID2221, AID2223, AID434968, AID435010, AID449749, AID449750, AID489010]; format: functional
# [30] = target: T5, Replicative DNA helicase DnaB (Mycobacterium tuberculosis, UniProt P9WMR3); experiment: DnaB Intein secondary assay Measured in Biochemical System Using Plate Reader - 2047-04_Inhibitor_Dose_DryPowder_Activity. [Related pubchem assays (depositor defined):AID2223]
# T5 sequence (P9WMR3 whole entry): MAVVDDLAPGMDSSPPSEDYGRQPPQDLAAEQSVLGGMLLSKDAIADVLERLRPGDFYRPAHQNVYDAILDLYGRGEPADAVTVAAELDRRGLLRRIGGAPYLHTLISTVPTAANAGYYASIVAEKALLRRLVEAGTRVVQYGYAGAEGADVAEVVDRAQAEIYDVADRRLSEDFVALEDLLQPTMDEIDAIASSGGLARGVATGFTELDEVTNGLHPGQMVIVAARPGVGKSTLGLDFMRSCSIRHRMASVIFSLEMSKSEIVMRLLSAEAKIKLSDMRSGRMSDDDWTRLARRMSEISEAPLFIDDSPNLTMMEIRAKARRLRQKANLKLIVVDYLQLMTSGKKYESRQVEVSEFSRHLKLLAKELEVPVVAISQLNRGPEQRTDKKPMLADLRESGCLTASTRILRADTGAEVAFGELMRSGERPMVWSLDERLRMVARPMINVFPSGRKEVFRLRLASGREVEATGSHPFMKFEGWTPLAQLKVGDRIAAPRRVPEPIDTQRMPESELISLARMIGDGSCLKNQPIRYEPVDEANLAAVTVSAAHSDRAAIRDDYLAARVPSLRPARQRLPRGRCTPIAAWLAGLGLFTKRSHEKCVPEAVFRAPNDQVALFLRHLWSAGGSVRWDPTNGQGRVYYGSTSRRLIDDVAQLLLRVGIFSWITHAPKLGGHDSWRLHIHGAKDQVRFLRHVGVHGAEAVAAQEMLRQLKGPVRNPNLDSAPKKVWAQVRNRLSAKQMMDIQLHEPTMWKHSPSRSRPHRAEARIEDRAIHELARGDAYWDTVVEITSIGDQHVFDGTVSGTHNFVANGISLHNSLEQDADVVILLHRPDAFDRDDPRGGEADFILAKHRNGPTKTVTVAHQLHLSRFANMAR
# [31] = target: T6, Microphthalmia-associated transcription factor (Homo sapiens, UniProt O75030); experiment: reducers of TRPM1 reporter luminescence, concentration series – cell-based, SK-MEL-5, cherry-picked, set 3, MITF inhibitor project, dose response (AID 493073); format: functional;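 also: SK-MEL-5 melanoma cells with luciferase driven by the MITF target TRPM1 promoter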
# T6 sequence (O75030 whole entry): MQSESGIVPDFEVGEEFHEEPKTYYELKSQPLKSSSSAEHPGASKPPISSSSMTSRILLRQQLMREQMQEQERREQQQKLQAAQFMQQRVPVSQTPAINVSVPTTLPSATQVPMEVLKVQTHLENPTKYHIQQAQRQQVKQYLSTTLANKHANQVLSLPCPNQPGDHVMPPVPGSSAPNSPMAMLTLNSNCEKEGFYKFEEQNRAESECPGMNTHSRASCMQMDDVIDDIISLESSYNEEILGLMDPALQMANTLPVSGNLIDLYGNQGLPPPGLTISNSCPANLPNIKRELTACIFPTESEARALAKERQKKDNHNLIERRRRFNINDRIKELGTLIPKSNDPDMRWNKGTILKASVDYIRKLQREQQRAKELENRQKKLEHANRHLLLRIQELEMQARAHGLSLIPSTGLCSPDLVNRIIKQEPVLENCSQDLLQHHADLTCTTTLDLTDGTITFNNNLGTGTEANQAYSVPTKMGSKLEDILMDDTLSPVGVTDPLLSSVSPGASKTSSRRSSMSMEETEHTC
# Protein RecA [32] = target: T4, Protein RecA; experiment: RecA Intein Measured in Biochemical System Using Plate Reader - 2047-02_Inhibitor_Dose_DryPowder_Activity. [Related pubchem assays (depositor defined):AID2223]; set-up: species or system Mycobacterium tuberculosis H37Rv
# cells [33] = format: functional
# [34] = target: T5, Replicative DNA helicase DnaB; experiment: DnaB intein splicing inhibitors, dose response, biochemical, cell-free fluorescence (AID 449749); format: functional
# Protein RecA [35] = target: T4, Protein RecA; experiment: Fluorescence Cell-Free Homogeneous Dose Retest to Identify Inhibitors of RecA-Intein Splicing Activity. [Related pubchem assays (depositor defined):AID2097, AID2223, AID489010, AID492950]; format: functional
# T3 sequence (P34972 whole entry): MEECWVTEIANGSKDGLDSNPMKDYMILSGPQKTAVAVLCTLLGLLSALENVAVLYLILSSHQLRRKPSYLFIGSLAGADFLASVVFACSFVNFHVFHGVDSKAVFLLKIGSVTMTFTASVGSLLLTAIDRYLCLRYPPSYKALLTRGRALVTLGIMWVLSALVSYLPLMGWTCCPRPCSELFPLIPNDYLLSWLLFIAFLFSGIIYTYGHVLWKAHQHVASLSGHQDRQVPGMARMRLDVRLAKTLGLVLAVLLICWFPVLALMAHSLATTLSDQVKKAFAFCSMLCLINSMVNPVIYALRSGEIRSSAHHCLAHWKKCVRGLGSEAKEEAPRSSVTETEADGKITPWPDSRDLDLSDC
# T1 sequence (Q9HC97 whole entry): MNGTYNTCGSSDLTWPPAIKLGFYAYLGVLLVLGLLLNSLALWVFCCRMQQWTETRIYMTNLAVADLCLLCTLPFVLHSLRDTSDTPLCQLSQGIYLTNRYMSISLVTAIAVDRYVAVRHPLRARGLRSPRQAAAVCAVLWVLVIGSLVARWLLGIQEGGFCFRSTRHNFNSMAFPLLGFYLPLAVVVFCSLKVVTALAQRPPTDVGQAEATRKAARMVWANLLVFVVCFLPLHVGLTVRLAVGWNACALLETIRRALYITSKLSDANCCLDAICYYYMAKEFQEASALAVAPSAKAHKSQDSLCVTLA
# T2 sequence (P21554 whole entry): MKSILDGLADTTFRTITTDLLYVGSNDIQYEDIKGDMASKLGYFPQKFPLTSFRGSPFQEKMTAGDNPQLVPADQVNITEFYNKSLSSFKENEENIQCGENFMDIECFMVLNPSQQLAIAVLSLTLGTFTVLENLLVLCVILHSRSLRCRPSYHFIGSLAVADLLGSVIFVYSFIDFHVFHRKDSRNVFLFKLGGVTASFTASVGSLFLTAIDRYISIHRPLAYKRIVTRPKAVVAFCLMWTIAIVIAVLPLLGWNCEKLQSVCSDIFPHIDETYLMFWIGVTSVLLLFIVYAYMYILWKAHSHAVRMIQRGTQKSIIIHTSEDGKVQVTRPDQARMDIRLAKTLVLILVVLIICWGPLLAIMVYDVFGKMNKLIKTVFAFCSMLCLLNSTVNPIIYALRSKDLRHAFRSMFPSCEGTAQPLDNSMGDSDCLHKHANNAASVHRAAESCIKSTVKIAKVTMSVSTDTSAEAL
# Chain of Nonstructural protein 1 (Q194T2 whole entry): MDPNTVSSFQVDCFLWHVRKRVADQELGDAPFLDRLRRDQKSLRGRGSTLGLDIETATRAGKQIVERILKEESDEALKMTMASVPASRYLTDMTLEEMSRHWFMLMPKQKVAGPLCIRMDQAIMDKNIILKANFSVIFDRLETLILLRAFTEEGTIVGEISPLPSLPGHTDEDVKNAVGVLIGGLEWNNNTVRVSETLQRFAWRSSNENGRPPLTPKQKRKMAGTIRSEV
# Chain of G-protein coupled receptor 55 (Q9Y2T6 whole entry): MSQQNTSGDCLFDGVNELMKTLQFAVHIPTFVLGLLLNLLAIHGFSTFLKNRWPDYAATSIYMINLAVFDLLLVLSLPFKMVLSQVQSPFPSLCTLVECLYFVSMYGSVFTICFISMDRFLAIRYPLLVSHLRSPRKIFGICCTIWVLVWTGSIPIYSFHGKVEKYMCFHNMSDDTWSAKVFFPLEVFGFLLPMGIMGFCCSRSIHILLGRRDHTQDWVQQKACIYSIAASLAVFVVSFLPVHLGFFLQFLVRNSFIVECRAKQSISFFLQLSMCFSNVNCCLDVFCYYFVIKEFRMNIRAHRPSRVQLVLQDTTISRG
structure (smiles),measurement,setting,value
COc1ccc(-c2cc(C(=O)Nc3ccc(S(=O)(=O)Nc4ncccn4)cc3)c3ccccc3n2)cc1,EC50,[1],> 32 µM (inactive)
same,EC50,Cannabinoid receptor 1 [2],> 32 µM (inactive)
same,IC50,[3],> 32 µM (inactive)
same,IC50,Cannabinoid receptor 1 [4],24.5 µM (inactive)
same,IC50,[5],> 32 µM (inactive)
same,IC50,Cannabinoid receptor 2 [6],> 32 µM (inactive)
same,EC50,Cannabinoid receptor 2 [7],> 32 µM (inactive)
COc1cccc(N2CCN(C(=O)c3ccc(C[S+]([O-])c4ccc(C)cc4)o3)CC2)c1 (stereo unspecified),EC50,[8],0.703 µM (active)
same,EC50,[9],0.703 µM (inconclusive)
same,EC50,[10],5.76 µM (active)
same,EC50,[11],0.93 µM (active)
same,EC50,[12],36.4 µM (inconclusive)
same,EC50,[13],0.186 µM (inconclusive)
same,EC50,[14],0.186 µM (active)
same,EC50,BJ [15],0.873 µM (active)
same,EC50,cells [16],1.57 µM (active)
same,EC50,[17],12.6 µM (active)
same,EC50,[18],< 0.1 µM (active)
same,EC50,BJ [19],0.479 µM (inconclusive)
same,EC50,[20],36.4 µM (active)
same,EC50,BJ [21],0.651 µM (active)
same,EC50,[22],0.637 µM (active)
same,EC50,[23],1.43 µM (active)
same,EC50,BJ [24],< 0.104 µM (active)
same,AC50,[25],> 30 µM (inactive)
Cc1ccccc1-n1ncc2c([N+](=O)[O-])cc([N+](=O)[O-])cc21,CC50,[26],> 40 µM (active)
same,AC50,Protein RecA [27],232 µM (active)
same,CC50,[28],> 20 µM (active)
same,IC50,Nonstructural protein 1,31.1 µM (active)
same,CC50,[29],30.8 µM (active)
same,AC50,[30],5.7 µM (active)
same,AC50,[31],8.7 µM (active)
same,AC50,Protein RecA [32],2.19 µM (active)
same,IC50,cells [33],0.95 µM (active)
same,AC50,[34],3.15 µM (active)
same,EC50,Protein RecA [35],0.911 µM (active)
